Data reported in PubChem BioAssay AID1259411 (Chemical Carcinogenesis Research Information System (CCRIS), 2018).
The source made the active and inactive calls. How the calls were made is not given here.

System: rodent carcinogenicity bioassays, tumor incidence
Experiment: CCRIS carcinogenicity studies
Outline: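 NCI-built, expert-reviewed records of carcinogenicity and related test outcomes (mutagenicity, tumor promotion/inhibition) compiled from published and report sources, historical span 1985-2011, not updated.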

How did the carcinogen call (Species: FISH, Strain/Sex: COHO SALMON, Route: DIET, Dose: 0, 40 PPB IN DIET FOR 4 WK (STUDY DURATION: 12 MO)) turn out when `COc1cc2c(c3oc(=O)c4c(c13)CCC4=O)[C@@H]1C=CO[C@@H]1O2` was run?
Its carcinogen call is “inactive; negative”.

And the carcinogen call (Species: FISH, Strain/Sex: COHO SALMON, Route: DIET, Dose: 0, 5000 PPB FOR 3 WK (STUDY DURATION: 12 MO))?
Its carcinogen call is “inactive; negative”.

And the carcinogen call (Species: FISH, Strain/Sex: COHO SALMON, Route: IMMERSION, Dose: 0, 0.5 PPM AQUEOUS SOLUTION FOR 30 MIN EXPOSURE OF EMBRYOS 4-5 D BEFORE HATCHING (STUDY DURATION: 12 MO))?
The carcinogen call was “inactive; negative”.

What about the carcinogen call (Species: FISH, Strain/Sex: MT. SHASTA RAINBOW TROUT, Route: IMMERSION, Dose: 0, 0.5 PPM AQUEOUS SOLUTION FOR 15 MIN EXPOSURE OF EMBRYOS 4-5 D BEFORE HATCHING (STUDY DURATION: 12 MO), Tumor Site: Type of Lesion: LIVER: HEPATOCELLULAR CARCINOMA) of the same molecule?
The carcinogen call was “active; positive”.

And the carcinogen call (Species: FISH, Strain/Sex: MT. SHASTA RAINBOW TROUT, Route: ORAL, Dose: 0, 20 PPB IN DIET FOR 4 WK (STUDY DURATION: 12 MO), Tumor Site: Type of Lesion: LIVER: HEPATOCELLULAR CARCINOMA)?
The carcinogen call was “active; positive”.

What about the carcinogen call (Species: FISH, Strain/Sex: RAINBOW TROUT, Route: ORAL, Dose: 0, 1.5, 7.5 UG/DIET FOR 5.5 MO (STUDY DURATION: 5.5 MO), Dose: 0, 1.5, 7.5 UG/DIET FOR 5.5 MO (STUDY DURATION: 5.5 MO), Tumor Site: Type of Lesion: LIVER: HEPATOMA) of the same molecule?
The carcinogen call was “active; positive”.

What about the carcinogen call (Species: FISH, Strain/Sex: RAINBOW, Route: DIET, Dose: 0, 6 PPB FOR UP TO 1 YR, Tumor Site: Type of Lesion: LIVER: HEPATOCELLULAR CARCINOMA) of the same molecule?
The carcinogen call was “active; positive”.

What about the carcinogen call (Species: FISH, Strain/Sex: SHASTA RAINBOW TROUT/MALE, FEMALE, Route: IMMERSION, Dose: 0, 0.01, 0.025, 0.05, 0.1, 0.25, 0.5 PPM SOLUTION IN WATER FOR 1 HR EXPOSURE OF EMBRYOS (STUDY DURATION: 13 MO), Dose: 0, 0.01, 0.025, 0.05, 0.1, 0.25, 0.5 PPM SOLUTION IN WATER FOR 1 HR EXPOSURE OF EMBRYOS (STUDY DURATION: 13 MO), Tumor Site: Type of Lesion: LIVER: TUMOR) of the same molecule?
Its carcinogen call is “active; positive”.

What about the carcinogen call (Species: FISH, Strain/Sex: SHASTA RAINBOW TROUT/MALE, FEMALE, Route: ORAL, Dose: 0, 4, 8, 16, 32, 64 PPB IN DIET FOR 2 WK FOLLOWED BY CONTROL DIET FOR THE DURATION OF STUDY (STUDY DURATION: 9 MO), Dose: 0, 4, 8, 16, 32, 64 PPB IN DIET FOR 2 WK FOLLOWED BY CONTROL DIET FOR THE DURATION OF STUDY (STUDY DURATION: 9 MO), Tumor Site: Type of Lesion: LIVER: TUMOR) of the same molecule?
Its carcinogen call is “active; positive”.

What about the carcinogen call (Species: HUMAN, Route: ORAL, Tumor Site: Type of Lesion: LIVER) of the same molecule?
Its carcinogen call is “active; positive”.

What about the carcinogen call (Species: MONKEY, Strain/Sex: AFRICAN GREEN/MALE,FEMALE, Route: INTRAPERITONEAL, Dose: 99-134 MG TOTAL DOSE, 1/WK FOR AT LEAST 2 YR, Tumor Site: Type of Lesion: LIVER: CARCINOMA, HEMANGIOENDOTHELIAL SARCOMA, GALL BLADDER (BILE DUCT): ADENOCARCINOMA, PANCREAS: HEMANGIOENDOTHELIAL S, Tumor Site: Type of Lesion: LIVER: CARCINOMA, HEMANGIOENDOTHELIAL SARCOMA, GALL BLADDER (BILE DUCT): ADENOCARCINOMA, PANCREAS: HEMANGIOENDOTHELIAL S) of the same molecule?
The carcinogen call was “active; positive”.

And the carcinogen call (Species: MONKEY, Strain/Sex: AFRICAN GREEN/MALE,FEMALE, Route: ORAL, Dose: 99-134 MG TOTAL DOSE, 1/WK FOR AT LEAST 2 YR, Tumor Site: Type of Lesion: LIVER: CARCINOMA, HEMANGIOENDOTHELIAL SARCOMA, GALL BLADDER (BILE DUCT): ADENOCARCINOMA, PANCREAS: HEMANGIOENDOTHELIAL S, Tumor Site: Type of Lesion: LIVER: CARCINOMA, HEMANGIOENDOTHELIAL SARCOMA, GALL BLADDER (BILE DUCT): ADENOCARCINOMA, PANCREAS: HEMANGIOENDOTHELIAL S)?
Its carcinogen call is “active; positive”.

What about the carcinogen call (Species: MONKEY, Strain/Sex: CYNOMOLGUS/MALE,FEMALE, Route: INTRAPERITONEAL, Dose: 99-134 MG TOTAL DOSE, 1/WK FOR AT LEAST 2 YR, Tumor Site: Type of Lesion: LIVER: CARCINOMA, HEMANGIOENDOTHELIAL SARCOMA, GALL BLADDER (BILE DUCT): ADENOCARCINOMA, PANCREAS: HEMANGIOENDOTHELIAL S, Tumor Site: Type of Lesion: LIVER: CARCINOMA, HEMANGIOENDOTHELIAL SARCOMA, GALL BLADDER (BILE DUCT): ADENOCARCINOMA, PANCREAS: HEMANGIOENDOTHELIAL S) of the same molecule?
Its carcinogen call is “active; positive”.

What about the carcinogen call (Species: MONKEY, Strain/Sex: CYNOMOLGUS/MALE,FEMALE, Route: ORAL, Dose: 99-134 MG TOTAL DOSE, 1/WK FOR AT LEAST 2 YR, Tumor Site: Type of Lesion: LIVER: CARCINOMA, HEMANGIOENDOTHELIAL SARCOMA, GALL BLADDER (BILE DUCT): ADENOCARCINOMA, PANCREAS: HEMANGIOENDOTHELIAL S, Tumor Site: Type of Lesion: LIVER: CARCINOMA, HEMANGIOENDOTHELIAL SARCOMA, GALL BLADDER (BILE DUCT): ADENOCARCINOMA, PANCREAS: HEMANGIOENDOTHELIAL S) of the same molecule?
Its carcinogen call is “active; positive”.

What about the carcinogen call (Species: MONKEY, Strain/Sex: RHESUS/MALE,FEMALE, Route: INTRAPERITONEAL, Dose: 99-134 MG TOTAL DOSE, 1/WK FOR AT LEAST 2 YR, Tumor Site: Type of Lesion: LIVER: CARCINOMA, HEMANGIOENDOTHELIAL SARCOMA, GALL BLADDER (BILE DUCT): ADENOCARCINOMA, PANCREAS: HEMANGIOENDOTHELIAL S, Tumor Site: Type of Lesion: LIVER: CARCINOMA, HEMANGIOENDOTHELIAL SARCOMA, GALL BLADDER (BILE DUCT): ADENOCARCINOMA, PANCREAS: HEMANGIOENDOTHELIAL S) of the same molecule?
The carcinogen call was “active; positive”.

And the carcinogen call (Species: MONKEY, Strain/Sex: RHESUS/MALE,FEMALE, Route: ORAL, Dose: 99-134 MG TOTAL DOSE, 1/WK FOR AT LEAST 2 YR, Tumor Site: Type of Lesion: LIVER: CARCINOMA, HEMANGIOENDOTHELIAL SARCOMA, GALL BLADDER (BILE DUCT): ADENOCARCINOMA, PANCREAS: HEMANGIOENDOTHELIAL S, Tumor Site: Type of Lesion: LIVER: CARCINOMA, HEMANGIOENDOTHELIAL SARCOMA, GALL BLADDER (BILE DUCT): ADENOCARCINOMA, PANCREAS: HEMANGIOENDOTHELIAL S)?
The carcinogen call was “active; positive”.

What about the carcinogen call (Species: MOUSE, Route: INTRAPERITONEAL, Tumor Site: Type of Lesion: LIVER) of the same molecule?
Its carcinogen call is “active; positive”.

And the carcinogen call (Species: MOUSE, Route: INTRAPERITONEAL, Tumor Site: Type of Lesion: LUNG)?
The carcinogen call was “active; positive”.

And the carcinogen call (Species: MOUSE, Strain/Sex: DDK/FEMALE, Route: TRANSPLACENTAL, Dose: 0, 20, 40, 80, 120 MG/KG ADMINISTERED INTRAPERITONEALLY TO MOTHERS ON DAY 14 OF GESTATION AND OFFSPRING OBSERVED FOR 12, Dose: 0, 20, 40, 80, 120 MG/KG ADMINISTERED INTRAPERITONEALLY TO MOTHERS ON DAY 14 OF GESTATION AND OFFSPRING OBSERVED FOR 12)?
The carcinogen call was “inactive; negative”.

What about the carcinogen call (Species: MOUSE, Strain/Sex: DDK/FEMALE, Route: TRANSPLACENTAL, Dose: 0, 40 MG/KG ADMINISTERED INTRAPERITONEALLY TO MOTHERS ON DAY 14 OF GESTATION AND OFFSPRING OBSERVED FOR 6 MO AFTER BIRTH) of the same molecule?
The carcinogen call was “inactive; negative”.

What about the carcinogen call (Species: MOUSE, Strain/Sex: DDK/MALE, Route: TRANSPLACENTAL, Dose: 0, 20, 40, 80, 120 MG/KG ADMINISTERED INTRAPERITONEALLY TO MOTHERS ON DAY 14 OF GESTATION AND OFFSPRING OBSERVED FOR 12, Dose: 0, 20, 40, 80, 120 MG/KG ADMINISTERED INTRAPERITONEALLY TO MOTHERS ON DAY 14 OF GESTATION AND OFFSPRING OBSERVED FOR 12, Tumor Site: Type of Lesion: LIVER: TUMOR) of the same molecule?
The carcinogen call was “active; positive”.

And the carcinogen call (Species: MOUSE, Strain/Sex: DDK/MALE, Route: TRANSPLACENTAL, Dose: 0, 40 MG/KG ADMINISTERED INTRAPERITONEALLY TO MOTHERS ON DAY 14 OF GESTATION AND OFFSPRING OBSERVED FOR 6 MO AFTER BIRTH, Tumor Site: Type of Lesion: LIVER: TUMOR)?
The carcinogen call was “active; positive”.

What about the carcinogen call (Species: RAT, Route: INTRAPERITONEAL, ORAL, Tumor Site: Type of Lesion: LIVER) of the same molecule?
Its carcinogen call is “active; positive”.

What about the carcinogen call (Species: RAT, Strain/Sex: F344/MALE, Route: ORAL, Dose: 0, 50 PPB IN AGAR BASED SEMISYNTHETIC DIET FOR STUDY DURATION (STUDY DURATION: 17 MO), Tumor Site: Type of Lesion: LIVER: HEPATOCELLULAR CARCINOMA) of the same molecule?
The carcinogen call was “active; positive”.

What about the carcinogen call (Species: RAT, Strain/Sex: F344/MALE, Route: ORAL, Dose: 50 PPB IN DIET 2/WK FOR 12 MO, Tumor Site: Type of Lesion: LIVER: HEPATOCELLULAR CARCINOMA) of the same molecule?
Its carcinogen call is “active; positive”.

What about the carcinogen call (Species: RAT, Strain/Sex: SPRAGUE-DAWLEY, Route: DIET, Dose: 0, 25 UG/D FOR 15 DOSES, Tumor Site: Type of Lesion: LIVER: HEPATOCELLULAR CARCINOMA) of the same molecule?
The carcinogen call was “active; positive”.

And the carcinogen call (Species: TROUT, Strain/Sex: MT. SHASTA RAINBOW, Route: ORAL, Dose: 4 PPB IN DIET FOR 12 MO, Tumor Site: Type of Lesion: LIVER: HEPATOMA)?
Its carcinogen call is “active; positive”.

What about the carcinogen call (Species: TROUT, Strain/Sex: MT. SHASTA RAINBOW, Route: ORAL, Dose: 20 PPB IN DIET FOR 12 MO, Tumor Site: Type of Lesion: LIVER: HEPATOCELLULAR CARCINOMA) of the same molecule?
Its carcinogen call is “active; positive”.
